# Test results reported in PubChem BioAssay AID1259407 (Chemical Carcinogenesis Research Information System (CCRIS), 2018).
# The source made the active and inactive calls. The rule behind the calls is not given here.
# Test system: CCRIS mutagenicity, Ames/micronucleus/aberration tests
# Assay: CCRIS mutagenicity studies
# [1] = Test System: AMES SALMONELLA TYPHIMURIUM, Strain/Indicator: TA98, Metabolic Activation: NONE, Method: PREINCUBATION
# [2] = Test System: AMES SALMONELLA TYPHIMURIUM, Strain/Indicator: TA98, Metabolic Activation: NONE, Method: STANDARD PLATE
# [3] = Test System: AMES SALMONELLA TYPHIMURIUM, Strain/Indicator: TA100, Metabolic Activation: NONE, Method: PREINCUBATION
# [4] = Test System: AMES SALMONELLA TYPHIMURIUM, Strain/Indicator: TA100, Metabolic Activation: NONE, Method: STANDARD PLATE
# [5] = Test System: AMES SALMONELLA TYPHIMURIUM, Strain/Indicator: TA1537, Metabolic Activation: NONE, Method: STANDARD PLATE
# [6] = Test System: AMES SALMONELLA TYPHIMURIUM, Strain/Indicator: TA98, Metabolic Activation: RAT, LIVER, S-9, AROCLOR 1254, Method: STANDARD PLATE
# [7] = Test System: AMES SALMONELLA TYPHIMURIUM, Strain/Indicator: TA100, Metabolic Activation: RAT, LIVER, S-9, AROCLOR 1254, Method: STANDARD PLATE
smiles,measurement,setting,value
O=c1[nH]cc(F)c(=O)[nH]1,mutagenic call,"End Point: IN VITRO MICRONUCLEUS, Test System: CHL/IU CELLS, Metabolic Activation: NONE",active; positive
same,mutagenic call,"End Point: IN VIVO CHROMOSOMAL ABERRATIONS, Test System: BONE MARROW CELLS, Species: MOUSE, Strain/Sex: SWISS/MALE, FEMALE, Route: IP",active; positive (aberrant metaphases)
same,mutagenic call,"End Point: IN VIVO MICRONUCLEUS, Test System: BLOOD ERYTHROCYTES, Species: MOUSE, Strain/Sex: CD-1/MALE, Route: INTRAPERITONEAL INJECTION",active; positive (at highest dose)
same,mutagenic call,"End Point: IN VIVO MICRONUCLEUS, Test System: BONE MARROW POLYCHROMATIC ERYTHROCYTES, Species: MOUSE, Strain/Sex: SWISS/MALE, FEMALE, Route: IP",active; positive
same,mutagenic call,"End Point: In vitro micronucleus, Test System: Human lymphoblastoid TK6 cells, Metabolic Activation: None",active; positive (p<0.001)
same,mutagenic call,"End Point: In vivo micronucleus, Test System: Micronucleated hepatocytes, Species: Rat, Strain/Sex: F344/Male, Route: Intraperitoneal",inactive; negative
same,mutagenic call,"Test System: AMES SALMONELLA TYPHIMURIUM, Strain/Indicator: TA98, Metabolic Activation: HAMSTER, LIVER, S-9, AROCLOR 1254 (10%), Method: PREINCUBATION",inactive; negative
same,mutagenic call,[1],inactive; negative
same,mutagenic call,[2],inactive; negative
same,mutagenic call,"Test System: AMES SALMONELLA TYPHIMURIUM, Strain/Indicator: TA98, Metabolic Activation: RAT, LIVER, S-9, AROCLOR 1254 (10%), Method: PREINCUBATION",inactive; negative
same,mutagenic call,"Test System: AMES SALMONELLA TYPHIMURIUM, Strain/Indicator: TA98, Metabolic Activation: S-9, Method: PREINCUBATION",inactive; negative
same,mutagenic call,"Test System: AMES SALMONELLA TYPHIMURIUM, Strain/Indicator: TA98, Metabolic Activation: S-9, Method: STANDARD PLATE",inactive; negative
same,mutagenic call,"Test System: AMES SALMONELLA TYPHIMURIUM, Strain/Indicator: TA100, Metabolic Activation: HAMSTER, LIVER, S-9, AROCLOR 1254 (10%), Method: PREINCUBATION",inactive; negative
same,mutagenic call,[3],inactive; negative
same,mutagenic call,[4],inactive; negative
same,mutagenic call,"Test System: AMES SALMONELLA TYPHIMURIUM, Strain/Indicator: TA100, Metabolic Activation: RAT, LIVER, S-9, AROCLOR 1254 (10%), Method: PREINCUBATION",inactive; negative
same,mutagenic call,"Test System: AMES SALMONELLA TYPHIMURIUM, Strain/Indicator: TA100, Metabolic Activation: S-9, Method: PREINCUBATION",inactive; negative
same,mutagenic call,"Test System: AMES SALMONELLA TYPHIMURIUM, Strain/Indicator: TA100, Metabolic Activation: S-9, Method: STANDARD PLATE",inactive; negative
same,mutagenic call,"Test System: AMES SALMONELLA TYPHIMURIUM, Strain/Indicator: TA102, Metabolic Activation: NONE, Method: STANDARD PLATE",inactive; negative
same,mutagenic call,"Test System: AMES SALMONELLA TYPHIMURIUM, Strain/Indicator: TA1535, Metabolic Activation: HAMSTER, LIVER, S-9, AROCLOR 1254 (10%), Method: PREINCUBATION",inactive; negative
same,mutagenic call,"Test System: AMES SALMONELLA TYPHIMURIUM, Strain/Indicator: TA1535, Metabolic Activation: NONE, Method: PREINCUBATION",inactive; negative
same,mutagenic call,"Test System: AMES SALMONELLA TYPHIMURIUM, Strain/Indicator: TA1535, Metabolic Activation: RAT, LIVER, S-9, AROCLOR 1254 (10%), Method: PREINCUBATION",inactive; negative
same,mutagenic call,"Test System: AMES SALMONELLA TYPHIMURIUM, Strain/Indicator: TA1537, Metabolic Activation: HAMSTER, LIVER, S-9, AROCLOR 1254 (10%), Method: PREINCUBATION",inactive; negative
same,mutagenic call,"Test System: AMES SALMONELLA TYPHIMURIUM, Strain/Indicator: TA1537, Metabolic Activation: NONE, Method: PREINCUBATION",inactive; negative
same,mutagenic call,[5],inactive; negative
same,mutagenic call,"Test System: AMES SALMONELLA TYPHIMURIUM, Strain/Indicator: TA1537, Metabolic Activation: RAT, LIVER, S-9, AROCLOR 1254 (10%), Method: PREINCUBATION",inactive; negative
same,mutagenic call,"Test System: AMES SALMONELLA TYPHIMURIUM, Strain/Indicator: TA2638, Metabolic Activation: NONE, Method: STANDARD PLATE",inactive; negative
same,mutagenic call,"Test System: E. COLI, Strain/Indicator: WP2 (HCR), Metabolic Activation: NONE, Method: STANDARD PLATE",inactive; negative
same,mutagenic call,"Test System: E. COLI, Strain/Indicator: WP2 (HCR), Metabolic Activation: S-9, Method: STANDARD PLATE",inactive; negative
same,mutagenic call,"Test System: E. COLI, Strain/Indicator: WP2 (PKM101), Metabolic Activation: NONE, Method: STANDARD PLATE",inactive; negative
same,mutagenic call,"Test System: E. COLI, Strain/Indicator: WP2 UVRA (PKM101), Metabolic Activation: NONE, Method: STANDARD PLATE",inactive; negative
same,mutagenic call,"Test System: MOUSE LYMPHOMA, Strain/Indicator: L5178Y (TK+/TK-), Metabolic Activation: NONE, Method: MICROWELL",active; positive
same,mutagenic call,"Test System: MOUSE LYMPHOMA, Strain/Indicator: L5178Y (TK+/TK-), Metabolic Activation: S-9, Method: MICROWELL",active; positive
COc1cc(CNC(=O)CCCCCCC(C)C)ccc1O,mutagenic call,"Test System: AMES SALMONELLA TYPHIMURIUM, Strain/Indicator: TA98, Metabolic Activation: HAMSTER, LIVER, S-9, AROCLOR 1254, Method: STANDARD PLATE",inactive; negative
same,mutagenic call,[6],inactive; negative
same,mutagenic call,"Test System: AMES SALMONELLA TYPHIMURIUM, Strain/Indicator: TA100, Metabolic Activation: HAMSTER, LIVER, S-9, AROCLOR 1254, Method: STANDARD PLATE",inactive; negative
same,mutagenic call,[4],inactive; negative
same,mutagenic call,[7],inactive; negative
same,mutagenic call,"Test System: AMES SALMONELLA TYPHIMURIUM, Strain/Indicator: TA1535, Metabolic Activation: HAMSTER, LIVER, S-9, AROCLOR 1254, Method: STANDARD PLATE",inactive; negative
same,mutagenic call,"Test System: AMES SALMONELLA TYPHIMURIUM, Strain/Indicator: TA1535, Metabolic Activation: NONE, Method: STANDARD PLATE",inactive; negative
same,mutagenic call,"Test System: AMES SALMONELLA TYPHIMURIUM, Strain/Indicator: TA1535, Metabolic Activation: RAT, LIVER, S-9, AROCLOR 1254, Method: STANDARD PLATE",inactive; negative
same,mutagenic call,"Test System: AMES SALMONELLA TYPHIMURIUM, Strain/Indicator: TA1537, Metabolic Activation: HAMSTER, LIVER, S-9, AROCLOR 1254, Method: STANDARD PLATE",inactive; negative
same,mutagenic call,[5],inactive; negative
same,mutagenic call,"Test System: AMES SALMONELLA TYPHIMURIUM, Strain/Indicator: TA1537, Metabolic Activation: RAT, LIVER, S-9, AROCLOR 1254, Method: STANDARD PLATE",inactive; negative
same,mutagenic call,"Test System: AMES SALMONELLA TYPHIMURIUM, Strain/Indicator: TA1538, Metabolic Activation: HAMSTER, LIVER, S-9, AROCLOR 1254, Method: STANDARD PLATE",inactive; negative
same,mutagenic call,"Test System: AMES SALMONELLA TYPHIMURIUM, Strain/Indicator: TA1538, Metabolic Activation: NONE, Method: STANDARD PLATE",inactive; negative
same,mutagenic call,"Test System: AMES SALMONELLA TYPHIMURIUM, Strain/Indicator: TA1538, Metabolic Activation: RAT, LIVER, S-9, AROCLOR 1254, Method: STANDARD PLATE",inactive; negative
CCc1cccc(CC)c1N,mutagenic call,[1],inactive; negative
same,mutagenic call,[2],inactive; negative
same,mutagenic call,"Test System: AMES SALMONELLA TYPHIMURIUM, Strain/Indicator: TA98, Metabolic Activation: RAT, LIVER, MICROSOMES, PHENOBARBITAL, Method: PREINCUBATION",inactive; negative
same,mutagenic call,[6],active; positive
same,mutagenic call,[3],inactive; negative
same,mutagenic call,[4],inactive; negative
same,mutagenic call,"Test System: AMES SALMONELLA TYPHIMURIUM, Strain/Indicator: TA100, Metabolic Activation: RAT, LIVER, MICROSOMES, PHENOBARBITAL, Method: PREINCUBATION",inactive; negative
same,mutagenic call,[7],active; positive
same,mutagenic call,"Test System: Ames Salmonella typhimurium, Strain/Indicator: TA97, Metabolic Activation: None, Method: Suspension",active; positive
same,mutagenic call,"Test System: Ames Salmonella typhimurium, Strain/Indicator: TA98, Metabolic Activation: None, Method: Suspension",active; positive
same,mutagenic call,"Test System: Ames Salmonella typhimurium, Strain/Indicator: TA100, Metabolic Activation: None, Method: Preincubation",inactive; negative
same,mutagenic call,"Test System: Ames Salmonella typhimurium, Strain/Indicator: TA1535, Metabolic Activation: None, Method: Suspension",inactive; negative
same,mutagenic call,"Test System: Ames Salmonella typhimurium, Strain/Indicator: TA1537, Metabolic Activation: None, Method: Suspension",inactive; negative
same,mutagenic call,"Test System: Ames Salmonella typhimurium, Strain/Indicator: TA1538, Metabolic Activation: None, Method: Suspension",active; positive (weak response; no dose response)
